Laboratory results published in PubChem BioAssay (NCI).
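Tested at 5 concentrations; 48 h exposure; 96-well plates; endpoints linearly interpolated, else capped at highest concentration. TGI is the concentration that stops growth completely.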

Assays:
Assay in all cases: growth of human tumour cells (NCI), 48 h
SF-268 CNS = tested on: SF-268 CNS
ACHN renal = tested on: ACHN renal
OVCAR-3 ovarian = tested on: OVCAR-3 ovarian
MALME-3M melanoma = tested on: MALME-3M melanoma
HS 578T breast = tested on: HS 578T breast
NCI-H460 lung = tested on: NCI-H460 lung
SNB-75 CNS = tested on: SNB-75 CNS
U251 CNS = tested on: U251 CNS
PC-3 prostate = tested on: PC-3 prostate
SF-539 CNS = tested on: SF-539 CNS
T-47D breast = tested on: T-47D breast
UACC-62 melanoma = tested on: UACC-62 melanoma
RXF 393 renal = tested on: RXF 393 renal
NCI/ADR-RES ovarian = tested on: NCI/ADR-RES ovarian
EKVX NSCLC = tested on: EKVX NSCLC
RPMI-8226 leukemia = tested on: RPMI-8226 leukemia
NCI-H226 lung = tested on: NCI-H226 lung
SK-MEL-5 melanoma = tested on: SK-MEL-5 melanoma
HCT-116 colon = tested on: HCT-116 colon
HT29 colon = tested on: HT29 colon
HOP-62 NSCLC = tested on: HOP-62 NSCLC
BT-549 breast = tested on: BT-549 breast
MDA-MB-435 = tested on: MDA-MB-435
OVCAR-5 ovarian = tested on: OVCAR-5 ovarian
NCI-H23 lung = tested on: NCI-H23 lung
MDA-MB-231 breast = tested on: MDA-MB-231 breast
SK-MEL-28 melanoma = tested on: SK-MEL-28 melanoma
CCRF-CEM leukemia = tested on: CCRF-CEM leukemia
UO-31 renal = tested on: UO-31 renal
IGROV1 ovarian = tested on: IGROV1 ovarian
KM12 colon = tested on: KM12 colon
DU-145 prostate = tested on: DU-145 prostate
NCI-H522 lung = tested on: NCI-H522 lung
OVCAR-8 ovarian = tested on: OVCAR-8 ovarian
HOP-92 NSCLC = tested on: HOP-92 NSCLC
MCF7 breast = tested on: MCF7 breast
CAKI-1 renal = tested on: CAKI-1 renal
M14 melanoma = tested on: M14 melanoma
SN12C renal = tested on: SN12C renal
SF-295 CNS = tested on: SF-295 CNS
786-0 renal = tested on: 786-0 renal
SK-OV-3 ovarian = tested on: SK-OV-3 ovarian
UACC-257 melanoma = tested on: UACC-257 melanoma
COLO 205 colon = tested on: COLO 205 colon
K-562 leukemia = tested on: K-562 leukemia
HCC-2998 colon = tested on: HCC-2998 colon
MOLT-4 leukemia = tested on: MOLT-4 leukemia
A498 renal = tested on: A498 renal
SK-MEL-2 melanoma = tested on: SK-MEL-2 melanoma
SW-620 colon = tested on: SW-620 colon
HCT-15 colon = tested on: HCT-15 colon
MDA-N = tested on: MDA-N
A549 NSCLC = tested on: A549 NSCLC
OVCAR-4 ovarian = tested on: OVCAR-4 ovarian
TK-10 renal = tested on: TK-10 renal
LOX IMVI melanoma = tested on: LOX IMVI melanoma
SNB-19 CNS = tested on: SNB-19 CNS
HL-60(TB) leukemia = tested on: HL-60(TB) leukemia
SR leukemia = tested on: SR leukemia

For `CCC1(C)C=Cc2c(cc(O)c3c(=O)c4ccccc4n(C)c23)O1` (stereo not drawn), the TGI (SF-268 CNS) was > 10 µM, the TGI (ACHN renal) was > 10 µM and the TGI (OVCAR-3 ovarian) was > 10 µM. The TGI (MALME-3M melanoma) was > 10 µM, the TGI (HS 578T breast) was > 10 µM and the TGI (NCI-H460 lung) was > 10 µM. For the same compound, the TGI (SNB-75 CNS) was > 10 µM, the TGI (U251 CNS) was > 10 µM and the TGI (PC-3 prostate) was > 10 µM. The TGI (SF-539 CNS) was > 10 µM, the TGI (T-47D breast) was > 10 µM and the TGI (UACC-62 melanoma) was > 10 µM. The TGI (RXF 393 renal) was > 10 µM, the TGI (NCI/ADR-RES ovarian) was > 10 µM and the TGI (EKVX NSCLC) was > 10 µM. The TGI (RPMI-8226 leukemia) was > 10 µM, the TGI (NCI-H226 lung) was > 10 µM and the TGI (SK-MEL-5 melanoma) was > 10 µM. The TGI (HCT-116 colon) was > 10 µM, the TGI (HT29 colon) was > 10 µM and the TGI (HOP-62 NSCLC) was > 10 µM. The TGI (BT-549 breast) was > 10 µM, the TGI (MDA-MB-435) was > 10 µM and the TGI (OVCAR-5 ovarian) was > 10 µM. For the same compound, the TGI (NCI-H23 lung) was > 10 µM, the TGI (MDA-MB-231 breast) was > 10 µM and the TGI (SK-MEL-28 melanoma) was > 10 µM. For the same compound, the TGI (CCRF-CEM leukemia) was > 10 µM, the TGI (UO-31 renal) was > 10 µM and the TGI (IGROV1 ovarian) was > 10 µM. The TGI (KM12 colon) was > 10 µM, the TGI (DU-145 prostate) was > 10 µM and the TGI (NCI-H522 lung) was > 10 µM. The TGI (OVCAR-8 ovarian) was > 10 µM, the TGI (HOP-92 NSCLC) was > 10 µM and the TGI (MCF7 breast) was > 10 µM. The TGI (CAKI-1 renal) was > 10 µM, the TGI (M14 melanoma) was > 10 µM and the TGI (SN12C renal) was > 10 µM. For the same compound, the TGI (SF-295 CNS) was > 10 µM, the TGI (786-0 renal) was > 10 µM and the TGI (SK-OV-3 ovarian) was > 10 µM. For the same compound, the TGI (UACC-257 melanoma) was > 10 µM, the TGI (COLO 205 colon) was > 10 µM and the TGI (K-562 leukemia) was > 10 µM. The TGI (HCC-2998 colon) was > 10 µM, the TGI (MOLT-4 leukemia) was > 10 µM and the TGI (A498 renal) was > 10 µM. The TGI (SK-MEL-2 melanoma) was > 10 µM, the TGI (SW-620 colon) was > 10 µM and the TGI (HCT-15 colon) was > 10 µM. The TGI (MDA-N) was > 10 µM, the TGI (A549 NSCLC) was > 10 µM and the TGI (OVCAR-4 ovarian) was > 10 µM. The TGI (TK-10 renal) was > 10 µM, the TGI (LOX IMVI melanoma) was > 10 µM and the TGI (SNB-19 CNS) was > 10 µM.
`O=c1oc2ccc([N+](=O)[O-])cc2c(Nc2ccc3c(c2)Oc2ccccc2O3)c1[N+](=O)[O-]` was tested, and the TGI (HL-60(TB) leukemia) was 40.2 µM, the TGI (SF-268 CNS) was > 100 µM and the TGI (ACHN renal) was > 100 µM. The TGI (OVCAR-3 ovarian) was > 100 µM, the TGI (MALME-3M melanoma) was > 100 µM and the TGI (HS 578T breast) was > 100 µM. The TGI (NCI-H460 lung) was > 100 µM, the TGI (SNB-75 CNS) was > 100 µM and the TGI (U251 CNS) was 38.7 µM. The TGI (PC-3 prostate) was 55.4 µM, the TGI (SF-539 CNS) was 61.1 µM and the TGI (T-47D breast) was > 100 µM. The TGI (UACC-62 melanoma) was > 100 µM, the TGI (RXF 393 renal) was > 100 µM and the TGI (NCI/ADR-RES ovarian) was > 100 µM. The TGI (EKVX NSCLC) was > 100 µM, the TGI (RPMI-8226 leukemia) was 70.2 µM and the TGI (NCI-H226 lung) was 87.1 µM. For the same compound, the TGI (SK-MEL-5 melanoma) was 76 µM, the TGI (HCT-116 colon) was > 100 µM and the TGI (HT29 colon) was > 100 µM. The TGI (HOP-62 NSCLC) was > 100 µM, the TGI (BT-549 breast) was > 100 µM and the TGI (MDA-MB-435) was > 100 µM. For the same compound, the TGI (OVCAR-5 ovarian) was > 100 µM, the TGI (NCI-H23 lung) was 62.3 µM and the TGI (MDA-MB-231 breast) was 37 µM. For the same compound, the TGI (SK-MEL-28 melanoma) was > 100 µM, the TGI (CCRF-CEM leukemia) was 84.7 µM and the TGI (UO-31 renal) was > 100 µM. For the same compound, the TGI (IGROV1 ovarian) was > 100 µM, the TGI (KM12 colon) was > 100 µM and the TGI (DU-145 prostate) was > 100 µM. The TGI (NCI-H522 lung) was > 100 µM, the TGI (OVCAR-8 ovarian) was > 100 µM and the TGI (HOP-92 NSCLC) was 54.1 µM. The TGI (MCF7 breast) was 67.5 µM, the TGI (CAKI-1 renal) was > 100 µM and the TGI (M14 melanoma) was > 100 µM. For the same compound, the TGI (SN12C renal) was > 100 µM, the TGI (SF-295 CNS) was > 100 µM and the TGI (786-0 renal) was 67.9 µM. The TGI (SK-OV-3 ovarian) was > 100 µM, the TGI (UACC-257 melanoma) was 76.6 µM and the TGI (COLO 205 colon) was 40.2 µM. It also gave a TGI (K-562 leukemia) of 86.7 µM, a TGI (HCC-2998 colon) of 66.4 µM and a TGI (SK-MEL-2 melanoma) of 44.2 µM. The TGI (HCT-15 colon) was > 100 µM, the TGI (MDA-N) was > 100 µM and the TGI (A549 NSCLC) was > 100 µM. For the same compound, the TGI (SR leukemia) was 72.4 µM, the TGI (OVCAR-4 ovarian) was > 100 µM and the TGI (TK-10 renal) was > 100 µM. For the same compound, the TGI (LOX IMVI melanoma) was 94 µM and the TGI (SNB-19 CNS) was > 100 µM.
